Experimental data as given in US20050014766A1, “Use of n-(indolecarbonyl-)piperazine derivatives” (priority 2002, published 2005).

Key:
[1] = Feeding experiment on Beagle hounds (body weight, feed consumption, behaviour and general state); format: in vivo
[2] = as above; format: in vivo; remark: listed apart in the source
Method: The efficacy of the compounds of the formula I for the treatment of obesity can be determined in vivo as follows (cf. Example B): A certain dose or varying doses of the test compound is administered to one group of experimental animals over an extended period. The amount of feed consumed and the body weight of the experimental animals are recorded regularly. At the same time, the behaviour and general state of the animals are monitored in a manner known per se. Conclusions can be drawn on the suitability of the test compound for the treatment of obesity from the decrease in the body weight and the take-up of feed in the experimental period with an otherwise unchanged general state and in the absence of changes in behaviour. The test substance in the form of hard gelatine capsules produced as described in Example B7 is administered once daily over a period of 11 days to a group of Beagle hounds about 8 months old which had been dewormed in advance. The amount of feed consumed is determined daily by re-weighing the unconsumed feed, the body weight before (day 0), during (day 5) and after (day 12) the feeding experiment. At the same time, the behaviour and general state of the animals are monitored over the entire experimental period. Drinking water in unlimited amount is available to the dogs. […] The behaviour and general state of the dogs are not impaired in the experimental period by the administration of the test substance.

[3] = Beagle hounds, once daily oral capsules over 11 days

Structure (SMILES): Cl.N#Cc1c[nH]c2c(C(=O)N3CCN(CCc4ccc(F)cc4)CC3)cccc12 [(3-cyano-1H-indol-7-yl)[4-(4-fluoro-phenethyl)piperazin-1-yl]methanone, hydrochloride]
- behaviour and general state of the dogs ([1]; Beagle hounds, experimental period, doses up to 100 mg/kg): not impaired
- body weight change (in words) [1, 3]: significant reduction in body weight
- consumption of feed during the experiment (in words) [1, 3]: increasingly restrict the consumption of feed
- body weight ([1]; Dog 1201 (male), day 0, before dosing): 6.8 kg
- feed consumption ([1]; Dog 1201 (male), day 1, no dose yet (dosing starts day 5)): 440 g
- feed consumption ([1]; Dog 1201 (male), day 2, no dose yet (dosing starts day 5)): 260 g
- feed consumption ([1]; Dog 1201 (male), day 3, no dose yet (dosing starts day 5)): 400 g
- feed consumption ([1]; Dog 1201 (male), day 4, no dose yet (dosing starts day 5)): 230 g
- feed consumption ([1]; Dog 1201 (male), day 5, dose 50 mg/kg): 340 g
- body weight ([1]; Dog 1201 (male), day 5, first day of 50 mg/kg): 7.1 kg
- feed consumption ([1]; Dog 1201 (male), day 6, dose 50 mg/kg): 220 g
- feed consumption ([1]; Dog 1201 (male), day 7, dose 50 mg/kg): 160 g
- feed consumption ([1]; Dog 1201 (male), day 8, dose 50 mg/kg): 170 g
- feed consumption ([1]; Dog 1201 (male), day 9, dose 50 mg/kg): 130 g
- feed consumption ([1]; Dog 1201 (male), day 10, dose 50 mg/kg): 80 g
- feed consumption ([1]; Dog 1201 (male), day 11, dose 50 mg/kg): 40 g
- body weight ([1]; Dog 1201 (male), day 12, after 50 mg/kg days 5-11): 6.3 kg
- body weight ([1]; Dog 2164 (female), day 0, before dosing): 6.1 kg
- feed consumption ([1]; Dog 2164 (female), day 1, no dose yet (dosing starts day 5)): 310 g
- feed consumption ([1]; Dog 2164 (female), day 2, no dose yet (dosing starts day 5)): 270 g
- feed consumption ([1]; Dog 2164 (female), day 3, no dose yet (dosing starts day 5)): 280 g
- feed consumption ([1]; Dog 2164 (female), day 4, no dose yet (dosing starts day 5)): 280 g
- feed consumption ([1]; Dog 2164 (female), day 5, dose 50 mg/kg): 340 g
- body weight ([1]; Dog 2164 (female), day 5, first day of 50 mg/kg): 5.9 kg
- feed consumption ([1]; Dog 2164 (female), day 6, dose 50 mg/kg): 180 g
- feed consumption ([1]; Dog 2164 (female), day 7, dose 50 mg/kg): 260 g
- feed consumption ([1]; Dog 2164 (female), day 8, dose 50 mg/kg): 150 g
- feed consumption ([1]; Dog 2164 (female), day 9, dose 50 mg/kg): 140 g
- feed consumption ([1]; Dog 2164 (female), day 10, dose 50 mg/kg): 130 g
- feed consumption ([1]; Dog 2164 (female), day 11, dose 50 mg/kg): 60 g
- body weight ([1]; Dog 2164 (female), day 12, after 50 mg/kg days 5-11): 5.5 kg
- feed consumption ([1]; Dog 8910 (male), day 1, dose 3 mg/kg): 380 g
- feed consumption ([1]; Dog 8910 (male), day 3, dose 30 mg/kg): 370 g
- feed consumption ([1]; Dog 8910 (male), day 4, dose 100 mg/kg): 320 g
- feed consumption ([1]; Dog 8910 (male), day 5, dose 100 mg/kg): 250 g
- feed consumption ([1]; Dog 8910 (male), day 7, dose 100 mg/kg): 60 g
- feed consumption ([1]; Dog 8910 (male), day 8, dose 100 mg/kg): 60 g
- feed consumption ([1]; Dog 8910 (male), day 9, dose 100 mg/kg): 40 g
- feed consumption ([1]; Dog 8910 (male), day 11, dose 100 mg/kg): 90 g
- body weight ([1]; Dog 8936 (female), day 0, before dosing): 7.5 kg
- feed consumption ([1]; Dog 8936 (female), day 1, dose 3 mg/kg): 380 g
- feed consumption ([1]; Dog 8936 (female), day 2, dose 10 mg/kg): 380 g
- feed consumption ([1]; Dog 8936 (female), day 3, dose 30 mg/kg): 360 g
- feed consumption ([1]; Dog 8936 (female), day 4, dose 100 mg/kg): 220 g
- feed consumption ([1]; Dog 8936 (female), day 5, dose 100 mg/kg): 200 g
- body weight ([1]; Dog 8936 (female), day 5, once daily capsules 3, 10, 30 mg/kg days 1-3, 100 mg/kg from day 4): 7.3 kg
- feed consumption ([1]; Dog 8936 (female), day 7, dose 100 mg/kg): 80 g
- feed consumption ([1]; Dog 8936 (female), day 8, dose 100 mg/kg): 30 g
- feed consumption ([1]; Dog 8936 (female), day 9, dose 100 mg/kg): 30 g
- feed consumption ([1]; Dog 8936 (female), day 10, dose 100 mg/kg): 70 g
- feed consumption ([1]; Dog 8936 (female), day 11, dose 100 mg/kg): 10 g
- body weight ([1]; Dog 8936 (female), day 12, after 3, 10, 30 mg/kg days 1-3 and 100 mg/kg days 4-11): 6.2 kg
- body weight ([2]; Dog 8910 (male), day 0, before dosing): 8.6 kg
- feed consumption ([2]; Dog 8910 (male), day 2, dose 10 mg/kg): 320 g
- body weight ([2]; Dog 8910 (male), day 5, once daily capsules 3, 10, 30 mg/kg days 1-3, 100 mg/kg from day 4): 8.6 kg
- feed consumption ([2]; Dog 8910 (male), day 6, dose 100 mg/kg): 240 g
- feed consumption ([2]; Dog 8910 (male), day 10, dose 100 mg/kg): 20 g
- body weight ([2]; Dog 8910 (male), day 12, after 3, 10, 30 mg/kg days 1-3 and 100 mg/kg days 4-11): 7.8 kg
- feed consumption ([2]; Dog 8936 (female), day 6, dose 100 mg/kg): 140 g
